Measured values published in the NIST ThermoML archive (doi:10.1016/j.fluid.2015.10.035).
Numbers after ± are expanded uncertainties.

Experiments:
[1] = refractive index (Na D-line) (dimensionless); conditions: 293.15 K; 101.33 kPa; Liquid; Standard Abbe refractometry
[2] = 293.15 K; 101.33 kPa; Liquid; Vibrating tube method
[3] = Boiling temperature at pressure P; conditions: 101.3 kPa; Liquid; Closed cell (Static) method

Row | Structure (SMILES) | refractive index [1] | mass density [2] [kg/m3] | Boiling temperature at pressure P [3] [°C]
1 | CC#N [acetonitrile] | 1.3439 ± 0.0004 | 782.1 ± 0.4 | 81.44 ± 0.1
2 | CC(C)O [propan-2-ol] | 1.3773 ± 0.0004 | 786 ± 0.4 | 82.34 ± 0.1
